Test system: superior mesenteric artery (contracted by potassium chloride)
Experiment: Vessel Smooth Muscle Relaxation Action (V.R.)
Type: cell-based, rabbit
Conditions: Oryctolagus cuniculus; concentration relaxing KCl-contracted strain to 50%; cumulative administration; read-out: V.R. (ED50)
Text: The specimen was suspended by loading a strain in Krebs-Henseleit solution through which an oxygen gas containing 5% carbon dioxide was bubbled. The specimen was contracted by adding potassium chloride to maintain a predetermined strain. Thereafter, a test compound was cumulatively administrated.

In order of falling EC50:
1. O=S(=O)(NC(Cc1cnc[nH]1)CN1CCN(c2ccccc2)CC1)c1cccc2cnccc12 (stereo not drawn) [Example 2, N-[1-(Imidazol-4(5)-Yl-Methyl)-2-(4-Phenylpiperazinyl)Ethyl]-5-IsoquinolineSulfonamide]  47 µM
2. Cc1ccc(COC2CCN(CC(Cc3ccc(OS(=O)(=O)c4cccc5cnccc45)cc3)NS(=O)(=O)c3cccc4cnccc34)CC2)cc1 (stereo not drawn) [Example 84]  43 µM
3. O=C(CCc1ccccc1)N1CCN(C(=O)[C@H](Cc2ccc(O)cc2)NS(=O)(=O)c2cccc3cnccc23)CC1 [Example 31, 1-[N-(5-isoquinolinesulfonyl)tyrosyl]-4-(3-phenylpropionyl)piperazine]  24 ± 7 µM
4. CN(C(Cc1ccc(O)cc1)CN1CCC(NCc2ccccc2)CC1)S(=O)(=O)c1cccc2cnccc12 (stereo not drawn) [Example 98, N-{2-[4-(N-benzylamino)piperidino]-1-(p-hydroxybenzyl)ethyl}-N-methyl-5-isoquinolinesulfonamide]  22 µM
5. O=C([C@H](Cc1ccc(O)cc1)NS(=O)(=O)c1cccc2cnccc12)N1CCN(CCCc2ccccc2)CC1 [Example 33, 1-[N-(5-Isoquinolinesulfonyl)Tyrosyl]-4-(3-Phenylpropyl)Piperazine]  21 µM
6. COc1ccc(CC(CN2CCN(C(=O)OCc3ccccc3)CC2)NS(=O)(=O)c2cccc3cnccc23)cc1 (stereo not drawn) [Example 73, N-[2-(4-benzyloxycarbonylpiperazinyl)-1-(p-methoxybenzyl)ethyl]-5-isoquinolinesulfonamide]  14 µM
7. COc1ccc(N2CCN(CC(Cc3ccc(OS(=O)(=O)c4cccc5cnccc45)cc3)NS(=O)(=O)c3cccc4cnccc34)CC2)cc1 (stereo not drawn) [Example 52]  9.9 µM
8. CN(C(Cc1ccc(O)cc1)CN1CCN(C(=O)c2ccccc2)CC1)S(=O)(=O)c1cccc2cnccc12 (stereo not drawn) [Example 75, N-[2-(4-Benzoylpiperazinyl)-1-(P-Hydroxybenzyl)Ethyl]-N-Methyl-5-Isoquinolinesulfonamide]  9.7 µM
9. COc1ccc(N2CCN(CC(Cc3ccc(O)cc3)NS(=O)(=O)c3cccc4cnccc34)CC2)cc1 (stereo not drawn) [Example 55, N-{1-(p-hydroxybenzyl)-2-[4-(p-methoxyphenyl)piperazinyl]ethyl}-5-isoquinolinesulfonamide]  8.6 µM
10. COc1ccc(CC(CN2CCN(c3ccccc3)CC2)N(C)S(=O)(=O)c2cccc3cnccc23)cc1 (stereo not drawn) [Example 38, N-[1-(P-Methoxybenzyl)-2-(4-Phenylpiperazinyl)Ethyl]-N-Methyl-5-Isoquinolinesulfonamide]  8.1 µM
11. CN(C(Cc1ccc(OS(=O)(=O)c2cccc3cnccc23)cc1)CN1CCN(c2ccccn2)CC1)S(=O)(=O)c1cccc2cnccc12 (stereo not drawn) [Example 45, N-{1-[p-(5-isoquinolinesulfonyloxy)benzyl]-2-[4-(2-pyridyl)piperazinyl]ethyl}-N-methyl-5-isoquinolinesulfonamide]  7.5 µM
12. CN(C(Cc1ccc(OS(=O)(=O)c2cccc3cnccc23)cc1)CN1CCN(c2ccccc2)CC1)S(=O)(=O)c1cccc2cnccc12 (stereo not drawn) [Example 35]  6.9 µM
13. O=S(=O)(c1cccc2cnccc12)N1Cc2cc(O)c(O)cc2CC1CN1CCN(c2ccccc2)CC1 (stereo not drawn) [Example 10, 6,7-Dihydroxy-2-(5-Isoquinolinesulfonyl)-3-[(4-Phenylpiperazinyl)methyl]-1,2,3,4-tetrahydroisoquinoline]  6.4 µM
14. CN(C(Cc1ccc(O)cc1)CN1CCN(c2ncccn2)CC1)S(=O)(=O)c1cccc2cnccc12 (stereo not drawn) [Example 42, N-{1-(p-hydroxybenzyl)-2-[4-(2-pyrimidyl)piperazinyl]ethyl}-N-methyl-5-isoquinolinesulfonamide]  6.2 µM
15. CN(C(Cc1ccc(O)cc1)CN1CCN(C(=O)OCc2ccccc2)CC1)S(=O)(=O)c1cccc2ccccc12 (stereo not drawn) [Example 79, N-[2-(4-benzyloxycarbonylpiperazinyl)-1-(p-hydroxybenzyl)ethyl]-N-methyl-α-naphtharenesulfonamide]  5.5 µM
16. O=S(=O)(NC(Cc1ccc(O)cc1)CN1CCN(c2ccccc2)CC1)c1cccc2cnccc12 (stereo not drawn) [Example 37, N-[1-(p-hydroxybenzyl)-2-(4-phenylpiperazinyl)ethyl]-5-isoquinolinesulfonamide]  4.4 µM
17. CN(C(Cc1ccc(O)cc1)CN1CCN(c2ccccn2)CC1)S(=O)(=O)c1cccc2cnccc12 (stereo not drawn) [Example 46, N-{1-(p-hydroxybenzyl)-2-[4-(2-pyridyl)piperazinyl]ethyl}-N-methyl-5-isoquinolinesulfonamide]  4 µM
18. COc1ccc(CC(CN2CCN(C(=O)OCc3ccccc3)CC2)N(C)S(=O)(=O)c2cccc3cnccc23)cc1 (stereo not drawn) [Example 72, N-[2-(4-benzyloxycarbonylpiperazinyl)-1-(p-methoxybenzyl)ethyl]-N-methyl-5-isoquinolinesulfonamide]  4 µM
19. CN(C(Cc1ccc(O)cc1)CN1CCN(S(=O)(=O)Cc2ccccc2)CC1)S(=O)(=O)c1cccc2cnccc12 (stereo not drawn) [Example 76, N-[2-(4-benzylsulfonylpiperazinyl)-1-(p-hydroxybenzyl)ethyl]-N-methyl-5-isoquinolinesulfonamide]  2.9 µM
20. CN(C(Cc1ccc(O)cc1)CN1CCN(S(=O)(=O)c2ccccc2)CC1)S(=O)(=O)c1cccc2cnccc12 (stereo not drawn) [Example 62, N-{2-[(4-Benzenesulfonyl)Piperazinyl)-1-(P-Hydroxybenzyl)-Ethyl}-N-Methyl-5-Isoquinolinesulfonamide]  2.3 µM
21. CN(C(Cc1ccc(O)cc1)CN1CCN(C(=O)OCc2ccccc2)CC1)S(=O)(=O)c1cccc2cnccc12 (stereo not drawn) [Example 67, N-[2-(4-benzyloxycarbonylpiperazinyl)-1-(p-hydroxybenzyl)ethyl]-N-methyl-5-isoquinolinesulfonamide]  2.2 µM
22. O=S(=O)(NC(Cc1ccc(O)c(O)c1)CN1CCN(c2ccccc2)CC1)c1cccc2cnccc12 (stereo not drawn) [Example 8, N-{1-[(3,4-Dihydroxyphenyl)Methyl]-2-(4-Phenylpiperazinyl)Ethyl}-5-Isoquinoline Sulfonamide]  1.8 µM
23. Cc1ccc(S(=O)(=O)Nc2ccc(C[C@@H](C(=O)N3CCN(c4ccccc4)CC3)N(C)S(=O)(=O)c3cccc4cnccc34)cc2)cc1 [Example 22, 1-[N-(5-isoquinolinesulfonyl)-N-methyl-p-(p-toluenesulfonylamino)phenylalanyl]-4-phenylpiperazine]  1.8 µM
24. O=S(=O)(NC(Cc1ccc(OS(=O)(=O)c2cccc3cnccc23)cc1)CN1CCN(c2ccccc2)CC1)c1cccc2cnccc12 (stereo not drawn) [Example 34]  1.8 µM
25. CN(C(Cc1ccc(OS(=O)(=O)c2cccc3ccccc23)cc1)CN1CCN(C(=O)OCc2ccccc2)CC1)S(=O)(=O)c1cccc2ccccc12 (stereo not drawn) [Example 78, N-{2-(4-benzyloxycarbonylpiperazinyl)-1-[p-(α-naphtharenesulfonyloxy)benzyl]ethyl}-N-methyl-α-naphtharenesulfonamide]  1.8 µM
26. COc1ccc(N2CCN(CC(Cc3ccc(O)cc3)N(C)S(=O)(=O)c3cccc4cnccc34)CC2)cc1 (stereo not drawn) [Example 54, N-{1-(p-hydroxybenzyl)-2-[4-(p-methoxyphenyl)piperazinyl]ethyl}-N-methyl-5-isoquinolinesulfonamide]  1.7 µM
27. CN(C(Cc1ccc(OS(=O)(=O)c2cccc3cnccc23)cc1)CN1CCCN(c2ccccc2)CC1)S(=O)(=O)c1cccc2cnccc12 (stereo not drawn) [Example 81, N-{1-[p-(5-isoquinolinesulfonyloxy)benzyl]-2-(4-phenylhomopiperazinyl)ethyl}-N-methyl-5-isoquinolinesulfonamide]  1.7 µM
28. CN(C(Cc1ccc(O)c(O)c1)CN1CCN(c2ccccc2)CC1)S(=O)(=O)c1cccc2cnccc12 (stereo not drawn) [Example 7, N-{1-[(3,4-Dihydroxyphenyl)Methyl]-2-(4-Phenylpiperazinyl)Ethyl}-N-Methyl-Isoquinoline Sulfonamide]  1.6 µM
29. CN(C(Cc1ccc(O)cc1)CN1CCN(S(=O)(=O)c2cccc3cnccc23)CC1)S(=O)(=O)c1cccc2cnccc12 (stereo not drawn) [Example 77, N-{1-(p-hydroxybenzyl]-2-[4-(5-isoquinolinesulfonyl)piperazinyl]ethyl}-N-methyl-5-isoquinolinesulfonamide]  1.4 µM
30. COc1ccc(N2CCN(CC(Cc3ccc(OS(=O)(=O)c4cccc5cnccc45)cc3)N(C)S(=O)(=O)c3cccc4cnccc34)CC2)cc1 (stereo not drawn) [Example 53, N-{1-[p-(5-isoquinolinesulfonyloxy)benzyl]-2-[4-(p-methoxyphenyl)piperazinyl]ethyl}-N-methyl-5-isoquinolinesulfonamide]  1.3 µM
31. COc1ccccc1N1CCN(CC(Cc2ccc(O)cc2)N(C)S(=O)(=O)c2cccc3cnccc23)CC1 (stereo not drawn) [Example 56, N-{1-(p-hydroxybenzyl)-2-[4-(2-methoxyphenyl)piperazinyl]ethyl}-N-methyl-5-isoquinolinesulfonamide]  1.2 µM
32. CN(C(Cc1ccc(OS(=O)(=O)c2cccc3cnccc23)cc1)CN1CCN(c2ccc(F)cc2)CC1)S(=O)(=O)c1cccc2cnccc12 (stereo not drawn) [Example 49]  0.92 µM
33. CN(C(Cc1ccc(O)cc1)CN1CCN(c2cccc(Cl)c2)CC1)S(=O)(=O)c1cccc2cnccc12 (stereo not drawn) [Example 47, N-{2-[4-(m-chlorophenyl)piperazinyl]-1-(p-hydroxybenzyl)ethyl}-N-methyl-5-isoquinolinesulfonamide]  0.39 µM
34. CN(C(Cc1ccccc1)CN1CCN(c2ccccc2)CC1)S(=O)(=O)c1cccc2cnccc12 (stereo not drawn) [Example 43, N-[1-benzyl-2-(4-phenylpiperazinyl)ethyl]-N-methyl-5-isoquinolinesulfonamide]  0.36 µM
35. Cc1cccc(N2CCN(CC(Cc3ccc(O)cc3)N(C)S(=O)(=O)c3cccc4cnccc34)CC2)c1 (stereo not drawn) [Example 51, N-{1-(p-hydroxybenzyl)-2-[4-(m-methylphenyl)piperazinyl]ethyl}-N-methyl-5-isoquinolinesulfonamide]  0.17 µM

Same assay, conditions: concentration relaxing KCl-contracted strain to 50%; cumulative administration; read-out: V.R. (ED50)

With O=S(=O)(NC(Cc1ccc(O)cc1)CN1CCN(CCCc2ccccc2)CC1)c1cccc2cnccc12 (stereo not drawn) [Example 69, N-{1-(p-hydroxybenzyl)-2-[4-(3-phenylpropyl)piperazinyl]ethyl}-5-isoquinolinesulfonamide] the EC50 was 14 µM.
